Measured values: ChEMBL document CHEMBL1201862, “PubChem BioAssay data set” (2004)
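Values below derive from 48-hour exposures of cells grown in 96-well plates, with endpoints linearly interpolated between the two concentrations bracketing the appropriate inhibition level. The concentration for 50% growth inhibition is given as GI50.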 Active and inactive are the calls of the source. Rule as the data show it: active = GI50 up to about 1.1 µM and inactive = higher.

Tests used:
Assay in all cases: DTP human tumour cell line panel, 48 h
LXFL 529 = system: LXFL 529
KM-20L2 = system: KM-20L2
DMS-273 = system: DMS-273
DLD-1 = system: DLD-1
HOP-18 = system: HOP-18
SNB-78 = system: SNB-78
M19-MEL = system: M19-MEL
XF498 = system: XF498
RXF 631 = system: RXF 631

Measured: GI50

CN(C)CCNC(=O)c1cccc2nc3cc(Cl)ccc3nc12
inactive: LXFL 529 2.14 µM | KM-20L2 2.81 µM | DMS-273 1.98 µM | DLD-1 2.68 µM | HOP-18 17.5 µM | SNB-78 2.65 µM | M19-MEL 1.8 µM

[N-]=[N+]=NC(CBr)c1cn([C@H]2C[C@H](O)[C@@H](CO)O2)c(=O)[nH]c1=O (stereo not given in full)
inactive: LXFL 529 > 100 µM | KM-20L2 > 100 µM | DMS-273 > 100 µM | DLD-1 > 100 µM | HOP-18 1.99 µM | SNB-78 > 100 µM | M19-MEL > 100 µM

c1ccc2cc3[s+]snc3cc2c1
inactive: LXFL 529 85.1 µM | XF498 > 100 µM | KM-20L2 > 100 µM | DMS-273 > 100 µM | RXF 631 > 100 µM | DLD-1 > 100 µM | HOP-18 > 100 µM | SNB-78 > 100 µM | M19-MEL > 100 µM

O=C(Nc1ccccc1C(=O)O)C(=O)C(C(=O)c1ccccc1-c1ccccc1)C1OC(=O)c2ccccc21 (stereo not given)
inactive: LXFL 529 14.7 µM | XF498 10.3 µM | KM-20L2 22 µM | DMS-273 26.5 µM | DLD-1 23.5 µM | HOP-18 12.6 µM | SNB-78 > 100 µM | M19-MEL 21.1 µM

Nc1ncnc2c1ncn2C1OC(CSCC(F)(F)F)C(O)C1O (stereo not given)
inactive: LXFL 529 > 100 µM | XF498 > 100 µM | KM-20L2 > 100 µM | DMS-273 > 100 µM | DLD-1 > 100 µM | HOP-18 > 100 µM | SNB-78 > 100 µM | M19-MEL > 100 µM

CC(N)Cc1ccc(C(=O)Cl)cc1 (stereo not given)
inactive: LXFL 529 > 100 µM | XF498 > 100 µM | KM-20L2 > 100 µM | RXF 631 > 100 µM | DLD-1 > 100 µM | M19-MEL > 100 µM

OCCc1cnco1
inactive: LXFL 529 > 100 µM | KM-20L2 > 100 µM | DMS-273 63.8 µM | DLD-1 > 100 µM | HOP-18 > 100 µM | SNB-78 > 100 µM | M19-MEL > 100 µM

CC(C)(C)c1ccnc(/N=C2\N/C(=N\c3cc(C(C)(C)C)ccn3)c3ccccc32)c1
inactive: LXFL 529 41.9 µM | XF498 15.5 µM | KM-20L2 13.9 µM | DMS-273 > 10 µM | DLD-1 21.9 µM | HOP-18 18.3 µM | SNB-78 19.9 µM | M19-MEL 33.1 µM

COC1(OC)C2(Cl)C(Cl)=C(Cl)C1(Cl)C1C=CC=CC12 (stereo not given)
inactive: LXFL 529 > 100 µM | XF498 46.6 µM | KM-20L2 35.2 µM | DMS-273 60.8 µM | RXF 631 13.1 µM | DLD-1 67.5 µM | SNB-78 > 100 µM | M19-MEL 44.9 µM

O=C(O)CNc1c2ccccc2[n+]([O-])c2ccccc12
inactive: LXFL 529 34.6 µM | KM-20L2 > 100 µM | DMS-273 81.8 µM | RXF 631 > 100 µM | DLD-1 87.3 µM | HOP-18 36.1 µM | SNB-78 > 100 µM | M19-MEL > 100 µM

CN1C(=O)C2C3C=C4c5ccccc5N(c5ccccc5)C4(C2C1=O)[C@H]1C(=O)N(C)C(=O)[C@@H]31 (stereo not given in full)
inactive: LXFL 529 > 100 µM | XF498 > 100 µM | KM-20L2 > 100 µM | DLD-1 > 100 µM | M19-MEL > 100 µM

N#C/C(=C\c1ccccc1O)C(N)=O
inactive: LXFL 529 72.8 µM | XF498 28.1 µM | KM-20L2 > 100 µM | DMS-273 > 100 µM | RXF 631 > 100 µM | DLD-1 70.1 µM | SNB-78 46 µM | M19-MEL > 100 µM

O=C(CSc1ncnc2[nH]cnc12)c1ccccc1
inactive: LXFL 529 > 100 µM | XF498 > 100 µM | KM-20L2 > 100 µM | DMS-273 > 100 µM | DLD-1 > 100 µM | HOP-18 > 100 µM | SNB-78 > 100 µM | M19-MEL > 100 µM

CCOC(=O)N1C(c2ccccc2)C=CC(c2ccccc2)N1C(=O)OCC (stereo not given)
inactive: XF498 > 100 µM | KM-20L2 > 100 µM | DLD-1 > 100 µM | HOP-18 > 100 µM | SNB-78 > 100 µM | M19-MEL > 100 µM

COC1OC(CO)C(O)C(NC(=O)N(C)N=O)C1O (stereo not given)
inactive: LXFL 529 > 100 µM | XF498 > 100 µM | KM-20L2 > 100 µM | DMS-273 > 100 µM | DLD-1 > 100 µM | HOP-18 > 100 µM | SNB-78 > 100 µM | M19-MEL > 100 µM

N#CC(C(=O)CCCC(=O)Nc1ccc(Cl)cc1Cl)c1ccc(Cl)cc1 (stereo not given)
inactive: LXFL 529 > 100 µM | XF498 > 100 µM | KM-20L2 > 100 µM | DMS-273 > 100 µM | RXF 631 > 100 µM | DLD-1 > 100 µM | HOP-18 31.7 µM | SNB-78 > 100 µM

Nc1ccn(CCOC(=O)c2ccccc2)c(=O)n1
inactive: LXFL 529 > 100 µM | KM-20L2 > 100 µM | DMS-273 > 100 µM | RXF 631 > 100 µM | DLD-1 > 100 µM | HOP-18 > 100 µM | SNB-78 > 100 µM

COC(=O)Cc1cc(=O)n2c3ccccc3n(C)c2c1C#N
inactive: XF498 > 100 µM | KM-20L2 > 100 µM | DMS-273 > 100 µM | DLD-1 > 100 µM | SNB-78 > 100 µM | M19-MEL > 100 µM

CN(C)C(=S)/N=c1\ss/c(=N\S(=O)(=O)c2ccccc2)n1C
inactive: LXFL 529 > 100 µM | XF498 > 100 µM | KM-20L2 > 100 µM | DMS-273 > 100 µM | DLD-1 > 100 µM | HOP-18 > 100 µM | SNB-78 > 100 µM | M19-MEL > 100 µM
